Measured values as given in the supplement of paper PMC11451515.

Columns and labels:
Experiment in all cases: AUC of viability dose-response curve (% viability x log10 dose units); higher = less sensitive
Settings in all cases: 48 h
NOMO1 = test system: NOMO1
How it was run: (§1)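 In 1536-well plates, leukemia cells adapted to each medium (500 or 1000 cells/well) were exposed for 48 h at 37°C to library compounds in DMSO across 11 threefold doses, 47 μM down to 0.79 nM. Viability was read by CellTiter-Glo One luminescence and normalised per plate to DMSO and cell-free wells. A four-parameter log-logistic fit over log10 doses was integrated by trapezoidal rule. This yielded the area under the curve, with over-full-viability curves scaled and quality-control failures dropped.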

P12-Ichikawa = test system: P12-Ichikawa
How it was run: as §1

SEM cells = test system: SEM cells
How it was run: as §1

[1] = RPMI 5 mM glucose + 10% dialyzed FBS

Structure (SMILES)	AUC of viability dose-response curve (NOMO1; HPLM + 10% dialyzed FBS)	AUC of viability dose-response curve (NOMO1; RPMI 5 mM glucose + 10% FBS)	AUC of viability dose-response curve (NOMO1; [1])	AUC of viability dose-response curve (P12-Ichikawa; HPLM + 10% dialyzed FBS)	AUC of viability dose-response curve (P12-Ichikawa; RPMI 5 mM glucose + 10% FBS)	AUC of viability dose-response curve (P12-Ichikawa; [1])	AUC of viability dose-response curve (SEM cells; HPLM + 10% dialyzed FBS)	AUC of viability dose-response curve (SEM cells; RPMI 5 mM glucose + 10% FBS)	AUC of viability dose-response curve (SEM cells; [1])
COC(=O)[C@@H]1[C@H]2C[C@H]3c4[nH]c5ccccc5c4CCN3C[C@@H]2CC[C@@H]1O	356	325	350	373	378	402	440	441	451
CNc1nccc(-c2cccnc2Oc2cc(C(=O)Nc3cccc(C(F)(F)F)c3)ccc2C)n1	458	458	461	467	462	468	466	460	461
CN(C)C1=CC=C(C=C1)C(C2=CC=C(C=C2)N(C)C)=C/3\C=C/C(/C=C3)=[N+](C)C	225	232	234	253	233	240	226	218	211
CN1C[C@H]2c3ccccc3Oc3ccc(Cl)cc3[C@@H]2C1	440	410	418	436	462	410	372	395	396
CCOC(=O)C/1=C(O)/C(=O)N(CC2=CC=CC=C2)C1	459	446	462	462	466	468	463	469	468
CCC[C@H]1C[C@H](C(=O)N[C@@H]([C@@H]2O[C@@H](SC)[C@@H](O)[C@@H](O)[C@H]2O)[C@H](C)Cl)N(C)C1	459	430	439	465	455	467	447	450	447
NC\1=N\C(=O)N(\C=C1)[C@@H]2O[C@H](CO)[C@@H](O)[C@H]2O	417	463	466	467	471	469	452	443	438
COCCCN1CCC(NC(=O)c2cc(Cl)c(N)c3c2OCC3)CC1	460	456	468	465	467	473	453	451	454
C[C@]1(c2nc3c(C(N)=O)cccc3[nH]2)CCCN1	368	349	374	399	353	356	372	393	352
CC(C)C1=C(O)C=C(O)C(=C1)C/2=N/NC(=O)N2C3=CC4=C(C=C3)[N](C)C=C4	259	254	250	335	304	307	248	241	259
O=C(Nc1cc2cc[nH]c2cn1)c1ccccc1	366	385	401	360	414	386	359	335	364
C[N]1C=C(C2=C1C=CC=C2)\C3=C(\C(=O)NC3=O)C4=C5CC(CN)CC[N]5C6=C4C=CC=C6 (configuration not stated)	452	443	460	456	440	443	395	399	420
COc1ccc(-c2nc(N3CCOCC3)c3sc(CN(C)c4ncc(C(=O)NO)cn4)cc3n2)cn1	156	169	166	163	162	172	136	113	144
Cn1c(CNc2ccc(C(=N)N)cc2)nc2cc(C(=O)N(CCC(=O)O)c3ccccn3)ccc21	441	443	440	448	472	465	424	469	451
Cc1cccc(Nc2nc(-c3ccncc3)cs2)c1	442	466	473	470	469	465	466	464	454
CCC(C)(Oc1ccc(C2(c3ccc(OC(C)(CC)C(=O)O)cc3)CCCCC2)cc1)C(=O)O (configuration not stated)	475	456	469	458	459	426	471	454	472
CN[C@@H]1[C@H](O)[C@H](NC)[C@H]2O[C@@]3(O)C(=O)C[C@@H](C)O[C@H]3O[C@@H]2[C@H]1O	438	424	467	457	450	446	465	445	458

Structure (SMILES)	AUC of viability dose-response curve (NOMO1; HPLM + 10% dialyzed FBS)	AUC of viability dose-response curve (NOMO1; RPMI 5 mM glucose + 10% FBS)	AUC of viability dose-response curve (NOMO1; [1])	AUC of viability dose-response curve (P12-Ichikawa; HPLM + 10% dialyzed FBS)	AUC of viability dose-response curve (P12-Ichikawa; RPMI 5 mM glucose + 10% FBS)	AUC of viability dose-response curve (P12-Ichikawa; [1])	AUC of viability dose-response curve (SEM cells; HPLM + 10% dialyzed FBS)	AUC of viability dose-response curve (SEM cells; RPMI 5 mM glucose + 10% FBS)	AUC of viability dose-response curve (SEM cells; [1])
CC(C)CC(=O)N[C@H](C(=O)N[C@H](C(=O)N[C@@H](CC(C)C)[C@@H](O)CC(=O)N[C@@H](C)C(=O)N[C@@H](CC(C)C)[C@@H](O)CC(=O)O)C(C)C)C(C)C	450	445	467	471	476	477	443	435	437
Cn1cnc2c1c(=O)[nH]c(=O)n2C	440	443	449	452	452	445	447	415	443
Nc1ncnc2c1c(-c1cnc3[nH]ccc3c1)nn2C1CCCC1	364	388	397	379	343	326	356	306	360
C\C1=C(\C=C(C#N)/C(=O)N1)C2=C[N]3C=CN=C3C=C2	407	393	405	419	394	375	383	424	411
CC[C@H](C)[N]1C=C(C)C2=C1C=C(C=C2C(=O)NC\C3=C(C)\C=C(\C)NC3=O)C4=CC=C(N=C4)N5CCNCC5	469	475	467	476	468	474	474	472	463
CN1CCN(c2ccc([N+](=O)[O-])c3no[n+]([O-])c23)CC1	457	432	421	435	437	436	418	464	424
N#Cc1c(NC(=O)c2cccc3ccccc23)sc2c1CCCC2	345	339	346	325	325	346	318	304	310
C/C=C(/C)C(=O)O[C@H]1C(C)=C[C@]23C(=O)[C@@H](C=C(CO)[C@@H](O)[C@]12O)[C@H]1[C@@H](C[C@H]3C)C1(C)C	324	336	314	397	336	361	392	349	431
CC(C)NC[C@@H](C(=O)N1CCN(c2ncnc3c2[C@H](C)C[C@H]3O)CC1)c1ccc(Cl)cc1	411	444	419	367	350	362	257	251	249
O=C(NC[C@H](O)CO)c1ccncc1Nc1ccc(I)cc1F	328	290	309	467	437	464	426	376	378
COc1cc(OC)c(/C=C/[S+](=O)([O-])Cc2ccc(OC)c(NCC(=O)[O][Na])c2)c(OC)c1	315	309	278	271	269	257	287	269	249
O=C(Nc1ccccc1-c1cn2c(CN3CCNCC3)csc2n1)c1cnc2ccccc2n1	381	350	391	388	369	361	364	366	310
COc1ccc(-n2nc(C(N)=O)c3c2C(=O)N(c2ccc(N4CCCCC4=O)cc2)CC3)cc1	313	270	300	371	370	381	464	432	442
CN(C)[C@H]\1[C@@H]2C[C@H]3C(=C(O)\[C@]2(O)C(=O)\C(=C1O)C(N)=O)/C(=O)C4=C(O)C=CC=C4[C@@]3(C)O	468	443	454	470	467	461	426	441	452
CC/1=C(/N2[C@H](SC1)[C@H](NC(=O)[C@H](N)\C3=C\C\C=C/C3)C2=O)C(O)=O	446	454	461	471	441	440	429	470	448
CN1CCCN=C1/C=C/c1cccs1.O=C(O)c1cc2ccccc2c(Cc2c(O)c(C(=O)O)cc3ccccc23)c1O	417	446	436	413	462	462	467	442	453
